Several values for one entry are separate records, joined by “and”; a condition that tells them apart may be missing. Equal values may be shown once.
How the values were obtained:
[1] = biological target: Wild Type PPO Enzyme (Amaranthus PPO2, SEQ ID NO: 1) (Amaranthus tuberculatus, UniProt Q0NZW9); assay: PPO enzyme assay (recombinant), wild type; assay type: biochemical
[2] = test system: Transgenic T2 Arabidopsis plants and ARBTH WT MC24 non-transgenic; assay: Greenhouse post spray test, injury 14 DAT (Tables ii, iii); assay type: in vivo, Arabidopsis thaliana; conditions: Arabidopsis thaliana, 336 h;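 further: value is percent injury to the sprayed plants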
[3] = test system: Variant PPO Enzyme F420V (Amaranthus PPO2); assay type: biochemical; conditions: variant F420V vs wild type
[4] = test system: Variant PPO Enzyme L397Q (Amaranthus PPO2); assay type: biochemical; conditions: variant L397Q vs wild type
[5] = test system: Variant PPO Enzyme F420M (Amaranthus PPO2); assay: biochemical; assay type: biochemical; conditions: variant F420M vs wild type
[6] = test system: Transgenic T2 Arabidopsis plants harboring PPO inhibitor tolerance trait; assay: Lab based germination assay in 48-well plates (Table i); assay type: in vivo, Arabidopsis thaliana; conditions: construct AMATU_PPO2_TP_hemG (Escherichia coli); in comparison to wild type plants
[7] = test system: Variant PPO Enzyme R128A, F420V (Amaranthus PPO2); assay: biochemical; assay type: biochemical; conditions: variant R128A, F420V vs wild type
[8] = test system: Transgenic T2 or T3 Soybean plants harbouring PPO inhibitor tolerance trait; assay: Soybean Trial, post spray, injury score 14 DAT; assay type: in vivo
Procedure: Soybean cv Jake is transformed as previously described by Siminszky et al., Phytochem Rev. 5:445-458 (2006). After regeneration, transformants are transplanted to soil in small pots, placed in growth chambers (16 hr day/8 hr night; 25° C. day/23° C. night; 65% relative humidity; 130-150 microE m-2 s-1) and subsequently tested for the presence of the T-DNA via Taqman analysis. After a few weeks, healthy, transgenic positive, single copy events are transplanted to larger pots and allowed to grow in the growth chamber. An optimal shoot for cutting is about 3-4 inches tall, with at least two nodes present. Each cutting is taken from the original transformant (mother plant) and dipped into rooting hormone powder (indole-3-butyric acid, IBA). The cutting is then placed in oasis wedges inside a bio-dome. The mother plant is taken to maturity in the greenhouse and harvested for seed. Wild type cuttings are also taken simultaneously to serve as negative controls. The cuttings are kept in the bio-dome for 5-7 days and then transplanted to 3 inch pots and then acclimated in the growth chamber for two more days. Subsequently, the cuttings are transferred to the greenhouse, acclimated for approximately 4 days prior to spray. T0 or 2-week old T1 plants are sprayed with a treatment of the uracilpyridines as disclosed SUPRA and photosynthesis inhibitor diuron as negative control. Herbicide injury evaluations are taken at 2, 7, 14 and 21 days after treatment.
Transgenic T2 or T3 Soybean plants harbouring PPO inhibitor tolerance trait, were sprayed post with the indicated amount of uracilpyridine+1% (v/v) MSO. Evaluation performed 14 Days After Treatment (DAT) and shown as injury (0-9) relative to non-transgenic treated plants. Injury Scale: 0-9, 0=no imjury, 9=maximum injury. Note: segregating lines.

[9] = test system: Variant PPO Enzyme R128A, F420M (Amaranthus PPO2); assay type: biochemical; conditions: variant R128A, F420M vs wild type

Chain of Wild Type PPO Enzyme (Amaranthus PPO2, SEQ ID NO: 1) (Q0NZW9 1-534): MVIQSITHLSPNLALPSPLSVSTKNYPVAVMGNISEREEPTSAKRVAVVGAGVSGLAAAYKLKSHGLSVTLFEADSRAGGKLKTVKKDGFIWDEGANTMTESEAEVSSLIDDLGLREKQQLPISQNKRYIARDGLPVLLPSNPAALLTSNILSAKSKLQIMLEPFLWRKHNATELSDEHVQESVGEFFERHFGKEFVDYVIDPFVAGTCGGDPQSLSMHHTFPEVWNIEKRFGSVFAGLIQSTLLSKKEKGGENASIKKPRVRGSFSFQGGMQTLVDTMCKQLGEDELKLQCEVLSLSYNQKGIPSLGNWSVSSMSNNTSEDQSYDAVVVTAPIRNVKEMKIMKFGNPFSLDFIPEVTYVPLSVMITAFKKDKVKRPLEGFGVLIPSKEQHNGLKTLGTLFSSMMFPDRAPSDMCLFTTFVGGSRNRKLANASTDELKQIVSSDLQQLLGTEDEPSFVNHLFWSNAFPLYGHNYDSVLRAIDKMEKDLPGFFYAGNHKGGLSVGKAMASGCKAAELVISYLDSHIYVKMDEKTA

Compound: CCOC(=O)COc1ncccc1Oc1nc(-n2c(=O)cc(C(F)(F)F)n(C)c2=O)c(F)cc1Cl [Uracilpyridine 2, ethyl 2-[[3-[[3-chloro-5-fluoro-6-[3-methyl-2,6-dioxo-4-(trifluoromethyl)pyrimidin-1-yl]-2-pyridyl]oxy]-2-pyridyl]oxy]acetate]
- IC50 [1]: 0.187 nM
- pest or weed control at 50 g/ha ([2]; Table ii, ALOMY_PPO2_R137L_F438V event F, 50 g ai/ha): 18%
- pest or weed control at 100 g/ha ([2]; Table ii, ALOMY_PPO2_R137L_F438V event F, 100 g ai/ha): 18%
- pest or weed control at 200 g/ha ([2]; Table ii, ALOMY_PPO2_R137L_F438V event F, 200 g ai/ha): 23%
- pest or weed control at 50 g/ha ([2]; Table ii, ALOMY_PPO2_R137L_F438V event G, 50 g ai/ha): 0%
- pest or weed control at 100 g/ha ([2]; Table ii, ALOMY_PPO2_R137L_F438V event G, 100 g ai/ha): 10%
- pest or weed control at 200 g/ha ([2]; Table ii, ALOMY_PPO2_R137L_F438V event G, 200 g ai/ha): 20%
- pest or weed control at 50 g/ha ([2]; Table ii, ALOMY_PPO2_TP_AMATU_PPO2_R128M_F420I event R, 50 g ai/ha): 45%
- pest or weed control at 100 g/ha ([2]; Table ii, ALOMY_PPO2_TP_AMATU_PPO2_R128M_F420I event R, 100 g ai/ha): 45%
- pest or weed control at 200 g/ha ([2]; Table ii, ALOMY_PPO2_TP_AMATU_PPO2_R128M_F420I event R, 200 g ai/ha): 75%
- pest or weed control at 50 g/ha ([2]; Table ii, AMATU_PPO2_R128A_F420M event Q, 50 g ai/ha): 10%
- pest or weed control at 100 g/ha ([2]; Table ii, AMATU_PPO2_R128A_F420M event Q, 100 g ai/ha): 15%
- pest or weed control at 200 g/ha ([2]; Table ii, AMATU_PPO2_R128A_F420M event Q, 200 g ai/ha): 65%
- pest or weed control at 50 g/ha ([2]; Table ii, AMATU_PPO2_R128M_F420I event K, 50 g ai/ha): 18%
- pest or weed control at 100 g/ha ([2]; Table ii, AMATU_PPO2_R128M_F420I event K, 100 g ai/ha): 58%
- pest or weed control at 200 g/ha ([2]; Table ii, AMATU_PPO2_R128M_F420I event K, 200 g ai/ha): 70%
- pest or weed control at 100 g/ha ([2]; Table ii, AMATU_PPO2_TP_hemG event R, 100 g ai/ha): 40%
- pest or weed control at 200 g/ha ([2]; Table ii, AMATU_PPO2_TP_hemG event R, 200 g ai/ha): 35%
- pest or weed control at 1 g/ha ([2]; Table ii, AMATU_PPO2_WT event Q, 1 g ai/ha): 23%
- pest or weed control at 5 g/ha ([2]; Table ii, AMATU_PPO2_WT event Q, 5 g ai/ha): 100%
- pest or weed control at 10 g/ha ([2]; Table ii, AMATU_PPO2_WT event Q, 10 g ai/ha): 100%
- pest or weed control at 30 g/ha ([2]; Table ii, AMATU_PPO2_WT event Q, 30 g ai/ha): 100%
- pest or weed control at 1 g/ha ([2]; Table ii, ARBTH WT MC24 non-transgenic, 1 g ai/ha + 1% MSO): 100%
- pest or weed control at 5 g/ha ([2]; Table ii, ARBTH WT MC24 non-transgenic, 5 g ai/ha + 1% MSO): 100%
- pest or weed control at 10 g/ha ([2]; Table ii, ARBTH WT MC24 non-transgenic, 10 g ai/ha + 1% MSO): 100%
- pest or weed control at 30 g/ha ([2]; Table ii, ARBTH WT MC24 non-transgenic, 30 g ai/ha + 1% MSO): 100%
- pest or weed control at 50 g/ha ([2]; Table ii, ARBTH WT MC24 non-transgenic, 50 g ai/ha + 1% MSO): 100%
- pest or weed control at 80 g/ha ([2]; Table ii, ARBTH WT MC24 non-transgenic, 80 g ai/ha + 1% MSO): 100%
- pest or weed control at 100 g/ha ([2]; Table ii, ARBTH WT MC24 non-transgenic, 100 g ai/ha + 1% MSO): 100%
- pest or weed control at 200 g/ha ([2]; Table ii, ARBTH WT MC24 non-transgenic, 200 g ai/ha + 1% MSO): 100%
- pest or weed control at 30 g/ha ([2]; Table ii, ARBTH_PPO1_S305L_Y426M event O, 30 g ai/ha): 33%
- pest or weed control at 50 g/ha ([2]; Table ii, ARBTH_PPO1_S305L_Y426M event O, 50 g ai/ha as printed (row position suggests 5)): 0%
- pest or weed control at 80 g/ha ([2]; Table ii, ARBTH_PPO1_S305L_Y426M event O, 80 g ai/ha): 45%
- pest or weed control at 100 g/ha ([2]; Table ii, ARBTH_PPO1_S305L_Y426M event O, 100 g ai/ha as printed (row position suggests 10)): 0%
- pest or weed control at 1 g/ha ([2]; Table ii, ARBTH_PPO1_WT event Q, 1 g ai/ha): 15%
- pest or weed control at 5 g/ha ([2]; Table ii, ARBTH_PPO1_WT event Q, 5 g ai/ha): 100%
- pest or weed control at 10 g/ha ([2]; Table ii, ARBTH_PPO1_WT event Q, 10 g ai/ha): 100%
- pest or weed control at 30 g/ha ([2]; Table ii, ARBTH_PPO1_WT event Q, 30 g ai/ha): 100%
- pest or weed control at 50 g/ha ([2]; Table iii, ALOMY_PPO2_R137L_F438M (unnamed lines), 50 g ai/ha): 0%
- pest or weed control at 100 g/ha ([2]; Table iii, ALOMY_PPO2_R137L_F438M (unnamed lines), 100 g ai/ha): 0%
- pest or weed control at 50 g/ha ([2]; Table iii, ALOMY_PPO2_R137L_F438V (unnamed lines), 50 g ai/ha): 0%
- pest or weed control at 100 g/ha ([2]; Table iii, ALOMY_PPO2_R137L_F438V (unnamed lines), 100 g ai/ha): 0%
- pest or weed control at 50 g/ha ([2]; Table iii, AMATU_PPO2_L397E_F420M (unnamed lines), 50 g ai/ha): 0%
- pest or weed control at 100 g/ha ([2]; Table iii, AMATU_PPO2_L397E_F420V (unnamed lines), 100 g ai/ha): 0%
- pest or weed control at 100 g/ha ([2]; Table iii, AMATU_PPO2_L397Q_F420V (unnamed lines), 100 g ai/ha): 80%
- pest or weed control at 50 g/ha ([2]; Table iii, ARBTH WT MC 24 (non-transgenic), 50 g ai/ha + 1% MSO): 100%
- pest or weed control at 100 g/ha ([2]; Table iii, ARBTH WT MC 24 (non-transgenic), 100 g ai/ha + 1% MSO): 100%
- Tolerance Factor (R/S) [3]: 567
- Tolerance Factor (R/S) [4]: 7
- Tolerance Factor (R/S) [5]: 244 and 415
- Tolerance Factor [6]: 6400
- Tolerance Factor (R/S) [7]: 796 and 1105
- injury (0-9) ([8]; L397E, F420M Event 2, 25 g/ha + 1% (v/v) MSO): 0 (No Injury)
- injury (0-9) ([8]; L397E, F420M Event 2, 50 g/ha + 1% (v/v) MSO): 0 (No Injury)
- injury (0-9) ([8]; L397E, F420M Event 2, 100 g/ha + 1% (v/v) MSO): 0 (No Injury)
- injury (0-9) ([8]; L397E, F420V Event 1, 25 g/ha + 1% (v/v) MSO): 0 (No Injury)
- injury (0-9) ([8]; L397E, F420V Event 1, 50 g/ha + 1% (v/v) MSO): 0 (No Injury)
- injury (0-9) ([8]; L397E, F420V Event 1, 100 g/ha + 1% (v/v) MSO): 0 (No Injury)
- injury (0-9) ([8]; L397Q, F420M Event 3, 25 g/ha + 1% (v/v) MSO): 0 (No Injury) and 3
- injury (0-9) ([8]; L397Q, F420M Event 3, 50 g/ha + 1% (v/v) MSO): 3
- injury (0-9) ([8]; L397Q, F420M Event 3, 100 g/ha + 1% (v/v) MSO): 3 and 2
- Tolerance Factor (R/S) [9]: 521
